# Experimental data: paper PMC3435281 (PLoS ONE, 2012)
# Tests used:
# [1] = molecular target: AHR^b isoform (C57BL/6J hepatic cytosol) (Mus musculus, UniProt P30561); conditions: read-out: IC50, competitive binding; C57BL/6J cytosol, 1 nM radioligand 125IBr2N3DpD
# DBA/2J mice (AHR^d) = assay: In vivo hepatic microsomal EROD activity, DBA/2J; design: species or system mouse; conditions: oral 120 mg/kg, 48 hours
# Method: (§1) We utilized the wild type rat hepatoma cell line, 5L, which harbors the high affinity AHR isoform, and our newly created AHR^d-15 cell line. […] Groups of control mice were given corn oil alone or BNF at the concentration of 120 mg/kg.
# (§2) Figure 3 In Vitro dose response curves. A. Rat hepatoma cell lines bearing the murine AHR^d (AHR^d-15) or the rat AHR^b (5L) were incubated with increasing doses of TCDD in 96-well plates. After 40 hours, EROD activity was performed from whole cell lysate. (n = 3). […] (n = 3). C. Same assay as in A, with increasing doses of BNF. (n = 2). […] Following 48 hours, hepatic microsomal proteins were isolated and used for the assessment of EROD activity. Animals were treated in groups of 4. Error bars: S.D.
# Hepatic microsomes were prepared by homogenizing 0.5 g of liver tissue in 5 mL of MENG buffer (25 mM buffer sodium morpholinopropane sulfonate buffer (pH 7.5) containing 0.025% (w/v) NaN3, 1 mM EGTA and 10% (v/v) glycerol). The homogenate was subjected to centrifugation at 10,000×g for 20 minutes, followed by centrifugation of the supernatant for 1 hour at 100,000×g and 4°C. The pellet was dissolved in 15 mM Tris-HCl buffer containing 250 mM sucrose (pH 8.0) and aliquots were stored at −80°C. Protein concentration was determined using the Bicinchoninic Acid Protein Assay Reagent (Pierce Biotechnology, Rockford, IL). […]
# rat AHR^b (5L) = molecular target: T1, rat AHR^b (5L) (Rattus norvegicus, UniProt P41738); assay: EROD activity in rat hepatoma 5L cells; format: cell-based; conditions: 5L cell line, 40 hours
# T1 construct: endogenous in cells; host or cells: rat hepatoma 5L cells
# T1 sequence (P41738 10-853): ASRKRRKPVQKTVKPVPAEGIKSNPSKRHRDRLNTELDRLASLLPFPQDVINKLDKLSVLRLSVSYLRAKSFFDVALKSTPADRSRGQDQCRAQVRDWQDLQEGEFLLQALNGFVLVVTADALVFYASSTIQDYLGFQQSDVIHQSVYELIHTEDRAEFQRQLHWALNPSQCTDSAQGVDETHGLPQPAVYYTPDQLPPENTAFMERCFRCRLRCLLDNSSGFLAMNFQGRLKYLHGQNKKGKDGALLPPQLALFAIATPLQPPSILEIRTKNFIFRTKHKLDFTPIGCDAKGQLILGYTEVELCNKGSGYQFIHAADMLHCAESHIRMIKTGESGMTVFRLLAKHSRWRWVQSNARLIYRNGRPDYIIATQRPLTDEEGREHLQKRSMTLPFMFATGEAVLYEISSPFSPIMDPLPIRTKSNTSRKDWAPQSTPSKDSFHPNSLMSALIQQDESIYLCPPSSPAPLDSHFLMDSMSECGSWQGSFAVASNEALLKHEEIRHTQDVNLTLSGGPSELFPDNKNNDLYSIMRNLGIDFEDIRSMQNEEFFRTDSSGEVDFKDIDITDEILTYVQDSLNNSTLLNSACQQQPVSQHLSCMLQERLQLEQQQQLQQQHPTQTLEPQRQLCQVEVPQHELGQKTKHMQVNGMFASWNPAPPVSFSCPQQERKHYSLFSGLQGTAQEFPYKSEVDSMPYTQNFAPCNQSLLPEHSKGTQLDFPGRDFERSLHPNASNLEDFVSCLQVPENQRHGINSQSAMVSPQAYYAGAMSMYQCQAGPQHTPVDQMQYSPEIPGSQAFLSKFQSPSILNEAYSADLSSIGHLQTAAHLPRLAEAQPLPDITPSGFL
# Method: as §1, §2
# (§3) High-throughput analysis of EROD activity was assayed by adapting a protocol that was described elsewhere, [63]. Briefly, cells were seeded into 96-well plates at ∼ 60% density and treated with the test compounds for 36 hours. The cells were washed with PBS and lysed with 30 µL water and a cycle of freeze-thaw. To each well, 150 µL of 50 mM Hepes buffer containing 26.7 µM dicumarol and 13.3 µM ethoxyresorufin were added. The samples were incubated at 30°C for 20 minutes, and 50 µL of 0.5 mM β-NADPH were added to initiate the reaction. Fluorescence of the resorufin product was detected using the 544 nm excitation and 590 nm emission wavelength filter set.
# murine AHR^d = molecular target: T2, murine AHR^d (Mus musculus, UniProt P30561, A375V); assay: EROD activity in AHR^d-15 cells (rat hepatoma BP8 stably transfected with AHR^d)
# T2 sequence (P30561 10-848 A375V): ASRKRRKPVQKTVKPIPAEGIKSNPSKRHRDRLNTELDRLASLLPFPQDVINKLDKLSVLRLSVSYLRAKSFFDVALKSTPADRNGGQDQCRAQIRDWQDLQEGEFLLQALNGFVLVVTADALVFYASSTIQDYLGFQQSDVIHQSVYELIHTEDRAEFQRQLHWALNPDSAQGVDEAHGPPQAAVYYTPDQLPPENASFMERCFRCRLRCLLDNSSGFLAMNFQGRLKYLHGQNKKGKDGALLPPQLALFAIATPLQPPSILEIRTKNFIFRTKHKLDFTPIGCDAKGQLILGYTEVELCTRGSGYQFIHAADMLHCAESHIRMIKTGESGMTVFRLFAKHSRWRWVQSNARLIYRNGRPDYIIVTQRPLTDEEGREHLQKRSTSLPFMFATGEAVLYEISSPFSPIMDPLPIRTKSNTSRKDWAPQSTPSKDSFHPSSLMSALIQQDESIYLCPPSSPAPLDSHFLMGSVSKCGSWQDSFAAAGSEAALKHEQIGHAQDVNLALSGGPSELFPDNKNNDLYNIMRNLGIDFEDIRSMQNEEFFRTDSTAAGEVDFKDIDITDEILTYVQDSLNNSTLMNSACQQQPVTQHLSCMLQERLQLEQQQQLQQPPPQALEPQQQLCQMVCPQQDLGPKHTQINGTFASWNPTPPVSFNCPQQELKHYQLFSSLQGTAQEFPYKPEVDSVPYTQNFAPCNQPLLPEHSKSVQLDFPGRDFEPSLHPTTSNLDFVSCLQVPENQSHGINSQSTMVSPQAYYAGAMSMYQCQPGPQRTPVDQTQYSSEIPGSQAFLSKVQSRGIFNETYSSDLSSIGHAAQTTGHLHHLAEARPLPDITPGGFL
# Excerpt: The 100 “hit compounds” from the primary screen were subsequently screened for their capacity to activate the low-affinity murine AHR^d receptor isoform using the activity of the endogenous Cyp1a1 gene as a readout. To this end, we established a hepatoma cell line that expresses the AHR^d receptor isoform derived from the DBA/2J mouse. An AHR^d-expressing cell line was generated by stably transfecting the AHR^d cDNA into the rat hepatoma AHR-deficient cell line, BP8 [15]. After stable selection with G418, a subclone (AHR^d-15) was analyzed for receptor expression and function. […] To confirm that the AHR^d-15 clone expressed a functional low affinity AHR^d isoform, we examined the receptor-mediated response to the prototype agonists, TCDD and β-naphthoflavone (BNF).
# To test the ability of the 100 AHR inducers to activate the AHR^d-15 cells, they were treated with each of the compounds at the dose of 1 µM, for 36 hours in 96-well plates.
# as §2
# The open reading frame of the AHR^d gene (PL2047) was amplified by PCR using oligos OL5127 (5′-[…]-3′) and OL5128 (5′-[…]-3′). The product was ligated into the pTARGET™ mammalian expression vector (Promega, Madison, WI). The resulting plasmid was transfected into the AHR-deficient cell line, BP8 [15], using Effectene transfection reagent (Qiagen Inc., Valencia, CA). Stable integrants were selected with 6 mg/ml of G418 for 2 weeks, beginning at 48-hours post-transfection. Clones derived from single cells were screened for their response to nanomolar doses of dioxin or micromolar doses of BNF, as measured by ethoxyresorufin O-deethylase (EROD) activity. […] The validated cell line used in these studies was designated line AHR^d-15.
# as §3
# [2] = tested on: AHR (101L-hepatoma cells); assay: Antagonism of DRE-luciferase activation by CH223191; format: cell-based, human
# AHR^b isoform (C57BL/6J hepatic cytosol), sequence (P30561 10-805): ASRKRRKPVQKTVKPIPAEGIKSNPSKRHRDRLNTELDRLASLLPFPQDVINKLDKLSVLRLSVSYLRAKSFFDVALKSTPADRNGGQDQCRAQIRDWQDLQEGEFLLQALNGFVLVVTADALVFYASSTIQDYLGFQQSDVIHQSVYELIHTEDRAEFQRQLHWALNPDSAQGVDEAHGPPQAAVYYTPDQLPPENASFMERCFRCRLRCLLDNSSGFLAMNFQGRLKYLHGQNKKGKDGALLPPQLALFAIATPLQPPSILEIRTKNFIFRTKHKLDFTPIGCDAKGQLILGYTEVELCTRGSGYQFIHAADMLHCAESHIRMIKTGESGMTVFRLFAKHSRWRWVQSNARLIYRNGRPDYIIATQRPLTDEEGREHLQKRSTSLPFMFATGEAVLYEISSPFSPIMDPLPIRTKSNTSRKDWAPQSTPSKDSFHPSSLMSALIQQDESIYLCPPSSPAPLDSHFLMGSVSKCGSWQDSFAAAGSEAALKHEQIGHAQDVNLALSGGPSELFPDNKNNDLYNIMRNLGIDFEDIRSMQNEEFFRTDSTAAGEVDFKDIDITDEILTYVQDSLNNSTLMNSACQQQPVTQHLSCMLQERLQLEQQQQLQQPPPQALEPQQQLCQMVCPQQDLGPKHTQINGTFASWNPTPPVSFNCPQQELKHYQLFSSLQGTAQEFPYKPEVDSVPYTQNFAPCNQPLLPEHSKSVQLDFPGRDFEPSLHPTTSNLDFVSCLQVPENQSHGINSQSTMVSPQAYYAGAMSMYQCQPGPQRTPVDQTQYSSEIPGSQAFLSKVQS
smiles,measurement,setting,value
"c1ccc2cc3c(ccc4ccccc43)cc2c1 [1,2-Benzanthracene]",IC50,[1],13.7 nM
"O=c1cc(-c2ccccc2)oc2ccc3ccccc3c12 [BNF, β-naphthoflavone]",hepatic EROD activity,DBA/2J mice (AHR^d),dramatically decreased in vivo activity
same,EROD response,rat AHR^b (5L),strong response
same,EROD response,"murine AHR^d; AHR^d-15 cell line, 40 hours",no response
same,AHR-mediated response (EROD activity),"murine AHR^d; AHR^d-15 cells, doses as high as 10 µM, 36 hours",inactive
Cc1ccccc1N=Nc1ccc(NC(=O)c2ccnn2C)c(C)c1 [CH223191],inhibition of SU5416-induced DRE activation,"[2]; antagonist 10 µM, titration of SU5416, 4 hours",only a small amount of inhibition
same,inhibition of TCDD-induced DRE activation,"[2]; titration of antagonist with 1 nM TCDD, 4 hours",inhibited
same,inhibition of SU5416-induced DRE activation,"[2]; titration of antagonist with 100 nM SU5416, 4 hours",minimal inhibition
